Values of other authors as cited in patent US20210315194A1, “MOSQUITO ATTRACTANT FORMULATIONS AND USES THEREOF” (ACTIVE SCENT AB, priority 2018, published 2021).

Tested on: wild egg-laying Culex mosquitoes
Conditions: traps baited with 1 mg of the compound

Structure (SMILES): CCCCCCCCC=O [nonanal]
- attraction to baited traps: attract
